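Values below derive from 48-hour exposures of cells grown in 96-well plates, with endpoints linearly interpolated between the two concentrations bracketing the appropriate inhibition level. GI50 is the concentration that inhibits growth by half. At the TGI there is no net growth.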
Experiments:
Assay in all cases: NCI-60 cell line screen, 48 h
[1] = system: UACC-257 melanoma
[2] = system: TK-10 renal
[3] = system: SK-MEL-5 melanoma
[4] = system: OVCAR-5 ovarian
[5] = system: OVCAR-8 ovarian
[6] = system: HS 578T breast
[7] = system: U251 CNS
[8] = system: SNB-75 CNS
[9] = system: PC-3 prostate
[10] = system: MALME-3M melanoma
[11] = system: SN12C renal
[12] = system: NCI-H23 lung
[13] = system: A549 NSCLC
[14] = system: SR leukemia
[15] = system: RPMI-8226 leukemia
[16] = system: HCT-15 colon
[17] = system: NCI-H522 lung
[18] = system: SF-268 CNS
[19] = system: MOLT-4 leukemia
[20] = system: HCT-116 colon
[21] = system: BT-549 breast
[22] = system: COLO 205 colon
[23] = system: NCI/ADR-RES ovarian
[24] = system: CCRF-CEM leukemia
[25] = system: SW-620 colon
[26] = system: M14 melanoma
[27] = system: HT29 colon
[28] = system: 786-0 renal
[29] = system: OVCAR-3 ovarian
[30] = system: DU-145 prostate
[31] = system: A498 renal
[32] = system: SF-539 CNS
[33] = system: HL-60(TB) leukemia
[34] = system: HCC-2998 colon
[35] = system: UACC-62 melanoma
[36] = system: UO-31 renal
[37] = system: NCI-H226 lung
[38] = system: RXF 393 renal
[39] = system: NCI-H460 lung
[40] = system: OVCAR-4 ovarian
[41] = system: K-562 leukemia
[42] = system: CAKI-1 renal
[43] = system: SF-295 CNS
[44] = system: SNB-19 CNS
[45] = system: MDA-MB-231 breast
[46] = system: SK-MEL-28 melanoma
[47] = system: HOP-62 NSCLC
[48] = system: KM12 colon
[49] = system: IGROV1 ovarian
[50] = system: SK-OV-3 ovarian
[51] = system: MDA-MB-435
[52] = system: MCF7 breast
[53] = system: ACHN renal
[54] = system: T-47D breast

COc1cc(-c2cc(-c3nc4ccc(F)cc4[nH]3)[nH]n2)cc(OC)c1OC
GI50 [1]: 2.15 µM
TGI [1]: 5.9 µM
GI50 [2]: 4.39 µM
TGI [2]: 16 µM
GI50 [3]: 1.39 µM
TGI [3]: 2.8 µM
GI50 [4]: 11.1 µM
TGI [4]: 24 µM
GI50 [5]: 1.99 µM
TGI [5]: 5.03 µM
GI50 [6]: 3.32 µM
TGI [6]: > 100 µM
GI50 [7]: 2.61 µM
TGI [7]: 12 µM
GI50 [8]: 1.76 µM
TGI [8]: 5.54 µM
GI50 [9]: 1.63 µM
TGI [9]: 5.84 µM
GI50 [10]: 1.96 µM
TGI [10]: 8.44 µM
GI50 [11]: 2.92 µM
TGI [11]: 12.9 µM
GI50 [12]: 2.35 µM
TGI [12]: 6.89 µM
GI50 [13]: 2.46 µM
TGI [13]: 8.81 µM
GI50 [14]: 3.45 µM
TGI [14]: 32 µM
GI50 [15]: 1.24 µM
TGI [15]: 3.26 µM
GI50 [16]: 2.79 µM
TGI [16]: 10.8 µM
GI50 [17]: 1.73 µM
TGI [17]: 5.15 µM
GI50 [18]: 3.23 µM
TGI [18]: 11.2 µM
GI50 [19]: 2.1 µM
TGI [19]: 4.82 µM
GI50 [20]: 2.81 µM
TGI [20]: 10.4 µM
GI50 [21]: 1.84 µM
TGI [21]: 6.28 µM
GI50 [22]: 3.26 µM
TGI [22]: 10.3 µM
GI50 [23]: 3.19 µM
TGI [23]: 9.2 µM
GI50 [24]: 1.98 µM
TGI [24]: 5.74 µM
GI50 [25]: 4.11 µM
TGI [25]: 20.5 µM
GI50 [26]: 2.36 µM
TGI [26]: 7.62 µM
GI50 [27]: 4.4 µM
TGI [27]: 28.3 µM
GI50 [28]: 3.97 µM
TGI [28]: 14.6 µM
GI50 [29]: 2.95 µM
TGI [29]: 10 µM
GI50 [30]: 3.17 µM
TGI [30]: 13 µM
GI50 [31]: 1.86 µM
TGI [31]: 11.9 µM
GI50 [32]: 3.58 µM
TGI [32]: 14.4 µM
GI50 [33]: 2.52 µM
TGI [33]: 7.71 µM
GI50 [34]: 5.96 µM
TGI [34]: 18.7 µM
GI50 [35]: 1.8 µM
TGI [35]: 4.82 µM
GI50 [36]: 1.74 µM
TGI [36]: 6.97 µM
GI50 [37]: 1.28 µM
TGI [37]: 4.31 µM
GI50 [38]: 1.85 µM
TGI [38]: 9.36 µM
GI50 [39]: 2.9 µM
TGI [39]: 11.8 µM
GI50 [40]: 1.29 µM
TGI [40]: 4.27 µM
GI50 [41]: 2.87 µM
TGI [41]: 32.7 µM
GI50 [42]: 1.8 µM
TGI [42]: 6.84 µM
GI50 [43]: 2.51 µM
TGI [43]: 9.67 µM
GI50 [44]: 5.47 µM
TGI [44]: 18.8 µM
GI50 [45]: 3.05 µM
TGI [45]: 15.2 µM
GI50 [46]: 2.39 µM
TGI [46]: 6.52 µM
GI50 [47]: 2.37 µM
TGI [47]: 8.05 µM
GI50 [48]: 2.29 µM
TGI [48]: 6.23 µM
GI50 [49]: 2.27 µM
TGI [49]: 10.7 µM
GI50 [50]: 3.32 µM
TGI [50]: 9.59 µM
GI50 [51]: 2.12 µM
TGI [51]: 5.44 µM
GI50 [52]: 2.11 µM
TGI [52]: 6.37 µM
GI50 [53]: 2.54 µM
TGI [53]: 11.6 µM
GI50 [54]: 0.764 µM
TGI [54]: 3.09 µM

Reference: PubChem BioAssay (NCI)
